Measured values: patent US5283255A, “Wavelength-specific cytotoxic agents” (The University of British Columbia, priority 1992, dated 1994)
≈ marks a conversion by molar mass, not a printed value. Read-outs that look alike come from different tables or passages of the source.

Assays:
M-1 rhabdomycoscercoma = assay: In vivo photosensitization, M-1 rhabdomyosarcoma system in DBA/J2 mice; settings: for Number of Days Tumor Free (PR) / Cures (tumor regressed and tumor-free for 30 days): Table 6; for Number of Days Tumor Free (PR): 567 Jo/cm^2, IV 24 h before light; for Cures (tumor regressed and tumor-free for 30 days): 567 Jo/cm^2, 8 animals per group; for Days Tumor-free / Number of Cures: Table 7, light dose 378 To/cm^3; for Number of Cures: 9-15 animals
Method: Studies of potential photosensitizers were performed using the M-1 rhabdomycoscercoma system in DBA/J2 mice. The compositions to be tested were diluted to a concentration of […] in PBS from a stock solution in DMSO at 8 mg/ml (except Photofrin® II, which was diluted directly from the clinical vial). […]

Absorption spectrum = format: physicochemical; settings: R^1 and R^2 carbomethoxy; FIG. 3
From the text: All of the compositions of the invention employ as the light absorbing compound, a derivative of the protoporphyrin ring system which has a light absorption maximum in the range of 670-780 nanometers. […] Only BPD-DA has a major absorption peak at about 685 nm.

tumor cells = assay: Alternate in vivo assay: kill of tumor cells from dosed mice (MTT); settings: 80 μg/mouse IV, 180 min
[1] = test system: human erythrocytes (RBCS); assay: In vitro photosensitization: hemolysis of human erythrocytes after irradiation; format: cell-based; settings: Erythrocyte, 0.5 h, light 300-750 nm, 30 minutes, read-out: concentration required to obtain 50% hemolysis
Method: (§1) Target cells were washed three times in serum-free medium (DME), counted and made up to a concentration of 10^7 cells per ml.
(§2) For the "affinity" assay, in the dark, 100 μl of the target cell suspension and 100 μl of the test or control compound were mixed. "Labeling" was allowed to continue for one hour at 4° C., and labeled cells were washed in the dark three times with 3 ml medium each time and resuspended in fresh medium. The resuspended cells were then subjected to light exposure at 300-750 nanometers for 30 minutes.
When human erythrocytes (RBCS) were used as target cells, the hemolysis caused by irradiation of control (hematoporphyrin, Hp) labeled and green porphyrin (Gp) labeled cells were estimated visually. The Gp used in this Example was the BPD-DB of FIG. 2 wherein R^1 and R^2 are carboethoxy. […] Thus, a concentration of 250 ng/ml Hp was required under the above conditions to obtain 50% hemolysis while only 10 ng/ml of green porphyrin was required to hemolyze 50% of the RBCs.

Normal lymphocytes = assay: In vitro photosensitization, kill of normal lymphocytes; format: cell-based; settings: Lymphocyte, read-out: LD50 (the source's name)
Method: as §1, §2
(§3) In a "direct" assay the target cells were irradiated immediately upon addition of the test or control compound.
(§4) The effect of irradiation was estimated using methods appropriate to the target cells.
(§5) The results of each determination on a variety of cells is shown in Table 1 (LD50 in the concentration of compound required to kill 50% of the cell population.)

HL-60 = assay: In vitro photosensitization, kill of HL-60 cells; format: cell-based; settings: Homo sapiens, read-out: LD50 (the source's name)
Method: as §1, §2, §3, §4, §5

K562 = assay: In vitro photosensitization, kill of K562 cells; format: cell-based; settings: Homo sapiens, read-out: LD50 (the source's name)
Method: as §1, §2, §3, §4, §5

KG-1 = assay: In vitro photosensitization, kill of KG-1 cells; format: cell-based; settings: Homo sapiens, read-out: LD50 (the source's name)
Method: as §1, §2, §3, §4, §5

[2] = test system: murine mastocytoma cell line P815; assay: In vitro photosensitization, kill of P815 cells; format: cell-based; settings: Mus musculus; for EC50: P815, 0.5 h, 300-750 nm light for 30 minutes, read-out: concentration at which fifty percent of the P815 cells were killed; for IC50: P815, read-out: LD50 (the source's name)
Method: as §1, §2, §3
When the murine mastocytoma cell line P815 was used, the results were determined as follows:
The cells were labeled as above using concentration of 10-50 ng/ml of Hp as control and the BPD-DB as the test substance. The resuspended cells were treated with 300-750 nm light for 30 minutes and the viability resulting was estimated by direct counting using eosin-Y exclusion, a standard procedure for differentiating living from dead cells.
In other determinations conducted as above, the cells recovered from light exposure were assayed for viability by incubating them for 18 hours in 10 μCi/ml tritium-labeled thymidine according to the standard procedure whereby thymidine incorporation is equated with viability. The cells were harvested and radioactivity uptake was measured by a scintillation counter.
as §5

P815 cells = assay: Selective binding of green porphyrin: kill of labeled P815 cells; format: cell-based, murine; settings: Mus musculus, P815, 0.5 h; labeled in dark 30 minutes, washed, 300-750 nm light 30 minutes; read-out: concentration at which 50% of the P815 cells were destroyed
Method: P815 cells were incubated as described in Example 1 using 1-200 ng/ml Hp or Gp. The Gp was BPD-DB of FIG. 2 wherein R^1 and R^2 are carboethoxy. The cells were labeled in the dark for 30 minutes, washed free of unabsorbed porphyrins, resuspended, and then exposed to 300-750 nm light for another 30 minutes. Viability of the cells was established by tritiated thymidine incorporation after labeling with 20 μCi/ml tritiated thymidine and incubating at 37° C. for 18 hours.

[3] = In vivo cytotoxicity of Gp versus Hp conjugates (CAMAL-1 and anti-M1 procedures); settings: at appropriate wavelengths
Method: The efficacy of the conjugates and of the Gp compounds of the invention in vivo is also assessed. For the CAMAL-1 and anti-Ml conjugates, the procedures are as described in the two Mew et al. papers referenced above in Example 4.

P815 tumors = assay: In vivo cytotoxicity of immunoconjugates, P815 tumor-bearing DBA/2 mice
Method: The in vivo test relies on the indirect effect of a population of T-suppressor cells on tumors, which then serve as means to assess the effectiveness of the irradiation treatment. P815 mastocytoma cells grown in syngeneic DBA/2 mice stimulate T-suppressor cells specific for the tumor. These T-suppressor cells impede the development of specific T-killer cells which would otherwise aid in the regression of the tumor.
Therefore, in this assay, DBA/2 mice are injected in the right flank subcutaneously with 10^4 P815 cells to incorporate the tumor. On day eight, when the tumors are palpable (approx. 25-42 sq mm) the mice are randomly sorted into groups of eight and injected IV with 150 μl PBS containing nothing, Hp or Gp, B16G-Hp or B16G-Gp, B16G plus either drug, B16G alone or C-MAbHp or C-MAb-Gp. The levels of Hp are 50 Mg per animal in all cases and B16G 310 μg in all cases (where appropriate).
The animals are maintained in the dark for two hours and then exposed to strong light at 300-750 nm and 22.5 mW/cm^2. The animals were then treated normally and monitored on a daily basis.

tumor and normal tissues = settings: mouse, in vivo
From the text: Biodistribution studies have been conducted using tritiated BPD-MA and BPD-MB.

C=Cc1c(C)c2cc3nc(cc4[nH]c(cc5nc(cc1[nH]2)C(C)=C5CCC(=O)O)c(CCC(=O)O)c4C)C1(C)C3=CC=C(C(=O)OC)C1C(=O)OC (stereo not drawn) [BPD-DA]
Number of Days Tumor Free (PR) (M-1 rhabdomycoscercoma): 10.7 days | Cures (tumor regressed and tumor-free for 30 days) (M-1 rhabdomycoscercoma): 4 | Days Tumor-free (M-1 rhabdomycoscercoma): 2.5 days | Number of Cures (M-1 rhabdomycoscercoma): 4 | major absorption peak (Absorption spectrum): about 685 nm | % Kill (tumor cells; light dose 3.8 Jo): 11.0% | % Kill (tumor cells; light dose 7.6 Jo): 26.0%

C=Cc1c(C)c2cc3nc(cc4[nH]c(cc5nc(cc1[nH]2)C1(C)C5=CC=C(C(=O)OC)C1C(=O)OC)c(C)c4CCC(=O)O)C(CCC(=O)O)=C3C (stereo not drawn) [BPD-DB]
Number of Days Tumor Free (PR) (M-1 rhabdomycoscercoma): 10.6 days | Cures (tumor regressed and tumor-free for 30 days) (M-1 rhabdomycoscercoma): 3 | Days Tumor-free (M-1 rhabdomycoscercoma): 13.0 days | Number of Cures (M-1 rhabdomycoscercoma): 8

C=Cc1c(C)c2cc3nc(cc4[nH]c(cc5nc(cc1[nH]2)C1(C)C5=CC=C(C(=O)OCC)C1C(=O)OCC)c(C)c4CCC(=O)O)C(CCC(=O)O)=C3C (stereo not drawn) [Gp]
EC50 [1]: 0.01 µg/mL | IC50 (Normal lymphocytes; Affinity test): 0.011 µg/mL | IC50 (Normal lymphocytes; Direct test): 0.0042 µg/mL | IC50 (HL-60; HL-60, Affinity test): 0.0072 µg/mL | IC50 (HL-60; HL-60, Direct test): 0.0035 µg/mL | IC50 (K562; K562, Affinity test): 0.033 µg/mL | IC50 (K562; K562, Direct test): 0.07 µg/mL | IC50 (KG-1; KG-1, Affinity test): 0.08 µg/mL | IC50 (KG-1; KG-1, Direct test): 0.163 µg/mL | EC50 [2]: 0.032 µg/mL | IC50 ([2]; P815, Affinity test): 0.026 µg/mL | IC50 ([2]; P815, Direct test): 0.032 µg/mL | EC50 (P815 cells): 0.006 to 0.02 µg/mL (≈ 0.00819 to 0.0273 µM) | in vivo efficacy of Gp compound alone compared to Hp labeled conjugates [3]: superior results

CC1=C(CCC(=O)O)c2cc3[nH]c(cc4nc(cc5[nH]c(cc1n2)c(C)c5C(C)O)C(C)=C4C(C)O)c(C)c3CCC(=O)O (stereo not drawn) [Hp, hematoporphyrin, reference compound]
EC50 [1]: 0.25 µg/mL | IC50 (Normal lymphocytes; Affinity test): 0.1 µg/mL | IC50 (Normal lymphocytes; Direct test): 0.031 µg/mL | IC50 (HL-60; HL-60, Affinity test): 0.145 µg/mL | IC50 (HL-60; HL-60, Direct test): 0.064 µg/mL | IC50 (K562; K562, Affinity test): 2.5 µg/mL | IC50 (K562; K562, Direct test): 0.77 µg/mL | IC50 (KG-1; KG-1, Affinity test): 2.35 µg/mL | IC50 (KG-1; KG-1, Direct test): 0.96 µg/mL | EC50 [2]: 0.58 µg/mL | IC50 ([2]; P815, Affinity test): 1.3 µg/mL | IC50 ([2]; P815, Direct test): 0.58 µg/mL | EC50 (P815 cells): 0.2 µg/mL (≈ 0.334 µM) | % tumor-free after 100 (days) (P815 tumors; Experiment 2): 0% | Mean survival time (P815 tumors; Experiment 2): 21.0 days | No. of cures (P815 tumors; Experiment 2): 0/8 | % tumor-free after 100 (days) (P815 tumors; Experiment 3): 0% | Mean survival time (P815 tumors; Experiment 3): 23.4 days | No. of cures (P815 tumors; Experiment 3): 0/7 | % tumor-free after 100 (days) (P815 tumors; Experiment 4): 0% | Mean survival time (P815 tumors; Experiment 4): 24.2 days | No. of cures (P815 tumors; Experiment 4): 0/8 | % tumor-free after 100 (days) (P815 tumors; Experiment 5): 0% | Mean survival time (P815 tumors; Experiment 5): 27.0 days | No. of cures (P815 tumors; Experiment 5): 0/8

C=Cc1c(C)c2cc3nc(cc4[nH]c(cc5nc(cc1[nH]2)C(C)=C5CCC(=O)O)c(CCC(=O)OC)c4C)C1(C)C3=CC=C(C(=O)OC)C1C(=O)OC (stereo not drawn) [^3 H-BPD-MA]
ratio of concentration in tumor to Blood (tumor and normal tissues; 180 min): 0.52 | ratio of concentration in tumor to Brain (tumor and normal tissues; 180 min): 3.76 | ratio of concentration in tumor to Heart (tumor and normal tissues; 180 min): 1.09 | ratio of concentration in tumor to Intestine (tumor and normal tissues; 180 min): 2.42 | ratio of concentration in tumor to Lung (tumor and normal tissues; 180 min): 0.79 | ratio of concentration in tumor to Muscle (tumor and normal tissues; 180 min): 2.68 | ratio of concentration in tumor to Skin (tumor and normal tissues; 180 min): 2.57 | ratio of concentration in tumor to Stomach (tumor and normal tissues; 180 min): 1.57 | ratio of concentration in tumor to Blood (tumor and normal tissues; 1440 min): 1.45 | ratio of concentration in tumor to Brain (tumor and normal tissues; 1440 min): 3.06 | ratio of concentration in tumor to Heart (tumor and normal tissues; 1440 min): 1.71 | ratio of concentration in tumor to Intestine (tumor and normal tissues; 1440 min): 1.85 | ratio of concentration in tumor to Lung (tumor and normal tissues; 1440 min): 1.55 | ratio of concentration in tumor to Muscle (tumor and normal tissues; 1440 min): 2.98 | ratio of concentration in tumor to Skin (tumor and normal tissues; 1440 min): 1.64 | ratio of concentration in tumor to Stomach (tumor and normal tissues; 1440 min): 1.89 | ratio of concentration in tumor to Blood (tumor and normal tissues; 2880 min): 1.37 | ratio of concentration in tumor to Brain (tumor and normal tissues; 2880 min): 2.92 | ratio of concentration in tumor to Heart (tumor and normal tissues; 2880 min): 1.63 | ratio of concentration in tumor to Intestine (tumor and normal tissues; 2880 min): 1.88 | ratio of concentration in tumor to Lung (tumor and normal tissues; 2880 min): 1.47 | ratio of concentration in tumor to Muscle (tumor and normal tissues; 2880 min): 2.77 | ratio of concentration in tumor to Skin (tumor and normal tissues; 2880 min): 1.95 | ratio of concentration in tumor to Stomach (tumor and normal tissues; 2880 min): 2.08 | ratio of concentration in tumor to Blood (tumor and normal tissues; 4320 min): 1.66 | ratio of concentration in tumor to Brain (tumor and normal tissues; 4320 min): 2.69 | ratio of concentration in tumor to Heart (tumor and normal tissues; 4320 min): 1.46 | ratio of concentration in tumor to Intestine (tumor and normal tissues; 4320 min): 1.48 | ratio of concentration in tumor to Lung (tumor and normal tissues; 4320 min): 1.16 | ratio of concentration in tumor to Muscle (tumor and normal tissues; 4320 min): 2.16 | ratio of concentration in tumor to Skin (tumor and normal tissues; 4320 min): 1.57 | ratio of concentration in tumor to Stomach (tumor and normal tissues; 4320 min): 2.04 | ratio of concentration in tumor to Blood (tumor and normal tissues; 5760 min): 2.77 | ratio of concentration in tumor to Brain (tumor and normal tissues; 5760 min): 4.18 | ratio of concentration in tumor to Heart (tumor and normal tissues; 5760 min): 2.24 | ratio of concentration in tumor to Intestine (tumor and normal tissues; 5760 min): 3.29 | ratio of concentration in tumor to Lung (tumor and normal tissues; 5760 min): 1.63 | ratio of concentration in tumor to Muscle (tumor and normal tissues; 5760 min): 3.45 | ratio of concentration in tumor to Skin (tumor and normal tissues; 5760 min): 2.03 | ratio of concentration in tumor to Stomach (tumor and normal tissues; 5760 min): 2.23 | ratio of concentration in tumor to Blood (tumor and normal tissues; 10080 min): 3.65 | ratio of concentration in tumor to Brain (tumor and normal tissues; 10080 min): 6.91 | ratio of concentration in tumor to Heart (tumor and normal tissues; 10080 min): 2.51 | ratio of concentration in tumor to Intestine (tumor and normal tissues; 10080 min): 2.23 | ratio of concentration in tumor to Lung (tumor and normal tissues; 10080 min): 1.79 | ratio of concentration in tumor to Muscle (tumor and normal tissues; 10080 min): 4.23 | ratio of concentration in tumor to Skin (tumor and normal tissues; 10080 min): 3.51 | ratio of concentration in tumor to Stomach (tumor and normal tissues; 10080 min): 2.98 | Tumor skin ratios, most favorable time (tumor and normal tissues; iv): most favorable 3 hours after IV administration
